Data taken from patent US20140249135A1, “PIM KINASE INHIBITORS AND METHODS OF THEIR USE” (NOVARTIS AG, priority 2007, published 2014).
Like-named read-outs stand apart in the source and are kept apart here.

Columns and labels:
Pim1 kinase = Pim1 kinase (Homo sapiens, UniProt P11309); test: Pim1 ATP depletion assay; format: biochemical;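 further: Luciferase-luciferin luminescence readout of residual ATP after PIM1 transfers phosphate to a peptide substrate, 40 µM ATP added, reaction run to roughly half ATP consumption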
Pim1 kinase, sequence (P11309 whole entry): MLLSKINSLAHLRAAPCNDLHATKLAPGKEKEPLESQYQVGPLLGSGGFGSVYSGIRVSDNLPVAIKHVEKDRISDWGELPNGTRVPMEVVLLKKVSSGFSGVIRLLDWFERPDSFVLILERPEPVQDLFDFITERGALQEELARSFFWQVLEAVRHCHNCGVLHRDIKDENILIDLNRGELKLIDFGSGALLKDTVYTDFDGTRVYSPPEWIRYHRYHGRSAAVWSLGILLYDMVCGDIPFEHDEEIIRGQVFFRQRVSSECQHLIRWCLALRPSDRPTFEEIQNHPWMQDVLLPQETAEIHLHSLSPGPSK

Pim2 kinase = Pim2 kinase (Homo sapiens, UniProt Q9P1W9); test: Pim2 ATP depletion assay; format: biochemical;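 further: Luciferase-based luminescent readout of ATP remaining after PIM2 phosphorylates a BAD peptide, final 5 nM enzyme, 4 µM ATP, 10 µM peptide, 2.5% DMSO, run to roughly half ATP consumption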
Pim2 kinase, sequence (Q9P1W9 whole entry): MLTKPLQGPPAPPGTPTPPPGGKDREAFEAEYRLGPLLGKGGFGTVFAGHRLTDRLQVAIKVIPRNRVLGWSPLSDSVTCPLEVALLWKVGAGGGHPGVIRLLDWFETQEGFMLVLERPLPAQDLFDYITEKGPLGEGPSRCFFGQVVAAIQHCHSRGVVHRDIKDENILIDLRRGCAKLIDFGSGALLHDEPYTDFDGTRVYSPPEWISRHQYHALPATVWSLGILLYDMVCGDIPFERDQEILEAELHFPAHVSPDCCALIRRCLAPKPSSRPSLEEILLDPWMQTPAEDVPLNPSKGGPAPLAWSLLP

Pim3 kinase = Pim3 kinase (Homo sapiens, UniProt Q86V86); test: Pim3 ATP depletion assay; format: biochemical
KDR kinase = KDR kinase (Homo sapiens, UniProt P35968); test: KDR AlphaScreen assay; settings: KDR IC50 (μM)
KDR kinase, sequence (P35968 20-1356): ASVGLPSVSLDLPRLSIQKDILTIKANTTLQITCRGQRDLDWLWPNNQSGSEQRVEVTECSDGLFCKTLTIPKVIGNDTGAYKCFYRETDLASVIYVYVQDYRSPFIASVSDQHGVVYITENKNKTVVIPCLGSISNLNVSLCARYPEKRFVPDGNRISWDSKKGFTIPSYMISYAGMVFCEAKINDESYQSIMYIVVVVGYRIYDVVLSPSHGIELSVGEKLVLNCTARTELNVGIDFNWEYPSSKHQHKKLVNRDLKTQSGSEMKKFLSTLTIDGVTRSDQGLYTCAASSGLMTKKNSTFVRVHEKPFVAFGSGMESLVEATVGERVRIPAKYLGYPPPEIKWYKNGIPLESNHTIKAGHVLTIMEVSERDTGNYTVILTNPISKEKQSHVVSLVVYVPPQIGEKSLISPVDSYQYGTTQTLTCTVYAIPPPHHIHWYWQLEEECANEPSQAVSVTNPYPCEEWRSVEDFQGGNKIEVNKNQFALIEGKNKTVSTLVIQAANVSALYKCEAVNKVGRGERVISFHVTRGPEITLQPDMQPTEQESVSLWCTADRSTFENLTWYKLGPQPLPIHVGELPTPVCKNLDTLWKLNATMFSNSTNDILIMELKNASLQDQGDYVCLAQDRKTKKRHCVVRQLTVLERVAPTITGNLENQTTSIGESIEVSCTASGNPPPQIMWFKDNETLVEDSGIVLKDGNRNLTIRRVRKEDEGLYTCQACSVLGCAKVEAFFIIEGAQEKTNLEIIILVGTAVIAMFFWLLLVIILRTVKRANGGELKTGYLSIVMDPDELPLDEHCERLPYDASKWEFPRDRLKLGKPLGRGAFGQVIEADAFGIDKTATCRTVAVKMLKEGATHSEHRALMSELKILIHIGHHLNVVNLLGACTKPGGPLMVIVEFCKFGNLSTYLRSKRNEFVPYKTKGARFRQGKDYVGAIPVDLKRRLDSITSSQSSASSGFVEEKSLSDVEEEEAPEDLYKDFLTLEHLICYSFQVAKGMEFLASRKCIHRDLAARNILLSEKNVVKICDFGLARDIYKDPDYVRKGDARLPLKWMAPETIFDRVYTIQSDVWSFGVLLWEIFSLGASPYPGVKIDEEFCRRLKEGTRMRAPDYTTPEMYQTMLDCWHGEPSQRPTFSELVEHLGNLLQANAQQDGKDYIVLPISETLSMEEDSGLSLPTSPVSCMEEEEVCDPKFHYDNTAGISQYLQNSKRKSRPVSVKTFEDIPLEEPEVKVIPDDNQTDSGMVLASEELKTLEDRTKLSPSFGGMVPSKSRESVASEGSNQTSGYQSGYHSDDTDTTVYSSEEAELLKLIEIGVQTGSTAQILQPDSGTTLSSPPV

[1] = biological target: T1, human full length PKCE enzyme (Homo sapiens, UniProt Q02156); test: In vitro PKCE assay; format: biochemical; settings: 10 nM enzyme, 40 uM peptide substrate, 20 uM ATP, KinaseGlo Plus readout; read-out: PKCε IC50
T1 construct: human full length PKCE enzyme purchased from InVitrogen; purchased InVitrogen
T1 sequence (Q02156 1-737): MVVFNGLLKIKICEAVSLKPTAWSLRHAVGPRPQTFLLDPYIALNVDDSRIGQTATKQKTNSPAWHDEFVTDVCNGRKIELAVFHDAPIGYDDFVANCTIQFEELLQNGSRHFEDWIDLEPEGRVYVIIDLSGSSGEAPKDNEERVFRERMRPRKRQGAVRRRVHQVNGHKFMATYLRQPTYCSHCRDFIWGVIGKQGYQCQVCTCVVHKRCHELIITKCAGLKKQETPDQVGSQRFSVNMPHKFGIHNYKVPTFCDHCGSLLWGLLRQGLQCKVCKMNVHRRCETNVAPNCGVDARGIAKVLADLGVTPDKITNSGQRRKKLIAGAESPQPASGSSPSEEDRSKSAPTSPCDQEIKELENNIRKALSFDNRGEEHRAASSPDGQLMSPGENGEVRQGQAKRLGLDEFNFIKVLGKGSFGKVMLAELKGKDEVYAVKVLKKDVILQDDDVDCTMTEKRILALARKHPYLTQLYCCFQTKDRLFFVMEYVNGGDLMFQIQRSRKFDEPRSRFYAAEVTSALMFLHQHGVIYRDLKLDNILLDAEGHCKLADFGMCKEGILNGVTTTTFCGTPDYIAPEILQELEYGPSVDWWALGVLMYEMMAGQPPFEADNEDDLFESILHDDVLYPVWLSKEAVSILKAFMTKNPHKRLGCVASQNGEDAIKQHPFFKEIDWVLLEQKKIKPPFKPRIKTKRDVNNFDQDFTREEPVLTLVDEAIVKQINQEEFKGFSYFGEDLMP

[2] = Pim1 ATP depletion assay, read-out: IC50 (μM) PIM1
[3] = Pim1 ATP depletion assay, read-out: PIM1 IC50

Row | Structure (SMILES) | IC50 (Pim1 kinase; [2]) | IC50 (Pim2 kinase; read-out: IC50 (μM) PIM2) | IC50 (Pim3 kinase; read-out: IC50 (μM) PIM3) | IC50 (KDR kinase) | IC50 (Pim1 kinase; [3]) | IC50 (Pim2 kinase; read-out: PIM2 IC50) | IC50 (Pim3 kinase; read-out: PIM3 IC50) | IC50 [1] | IC50 (Pim1 kinase)
1 | Nc1cnc(-c2ccccc2F)nc1C(=O)Nc1cnccc1N1CCCC(O)(C(F)(F)F)C1 (stereo not drawn) [Example 166, 5-Amino-2-(2-fluoro-phenyl)-pyrimidine-4-carboxylic acid (3-hydroxy-3-trifluoromethyl-3,4,5,6-tetrahydro-2H-[1,4′]bi-pyridinyl-3′-yl)-amide] | < 1 µM | < 1 µM | < 1 µM | 10 to 25 µM |  |  |  |  | 
2 | Nc1cnc(-c2c(F)cccc2F)nc1C(=O)Nc1cnccc1N1CCC[C@H](O)C1 [Example 648, 5-Amino-2-(2,6-difluoro-phenyl)-pyrimidine-4-carboxylic acid (3-hydroxy-3,4,5,6-tetrahydro-2H-[1,4′]bi-pyridinyl-3′-yl)-amide] |  |  |  | 10 to 25 µM | < 1 µM | < 1 µM | < 1 µM |  | 
3 | Nc1ccc(-c2scc3c2OCCO3)nc1C(=O)Nc1cnccc1N1CCC[C@H](N)C1 [Example 447, 3-Amino-6-(2,3-dihydro-thieno[3,4-b][1,4]dioxin-5-yl)-pyridine-2-carboxylic acid (3-amino-3,4,5,6-tetrahydro-2H-[1,4′]bipyridinyl-3′-yl)-amide] | < 1 µM | < 1 µM | < 1 µM | 10 to 25 µM |  |  |  |  | 
4 | Nc1cccnc1C(=O)Nc1[nH]c(=O)ncc1N1CCCC(N)C1 (stereo not drawn) [Example 242, 3-amino-N-[5-(3-aminopiperidin-1-yl)-2-oxo-2,3-dihydro-pyrimidin-4-yl]pyridine-2-carboxamide] | < 1 µM | < 1 µM | < 1 µM |  |  |  |  | > 25 µM | 
5 | NCCC(=O)N1CCN(c2cnc(=O)[nH]c2NC(=O)c2nc(Br)cnc2N)CC1 [Example 241, 3-amino-N-{5-[4-(3-amino-propanoyl)piperazin-1-yl]-2-oxo-2,3-dihydropyrimidin-4-yl}-6-bromopyrazine-2-carboxamide] | < 1 µM | < 1 µM | < 1 µM |  |  |  |  | 1 to 10 µM | 
6 | Cc1cnc(N)c(C(=O)Nc2cnccc2N2CCCC(N)C2)n1 (stereo not drawn) [Example 371, 3-amino-6-methyl-pyrazine-2-carboxylic acid (3-amino-3,4,5,6-tetrahydro-2H-[1,4′]bi-pyridinyl-3′-yl)-amide] | < 1 µM | < 1 µM | < 1 µM |  |  |  |  | 1 to 10 µM | 
7 | Nc1ncc(-c2ccccc2OC(F)(F)F)nc1C(=O)Nc1[nH]c(=O)ncc1N1CCCC(N)C1 (stereo not drawn) [Example 405, 3-amino-6-(2-trifluoro-methoxy-phenyl)-pyrazine-2-carboxylic acid [5-(3-amino-piperidin-1-yl)-2-oxo-2,3-dihydro-pyrimidin-4-yl]-amide] | < 1 µM | < 1 µM | < 1 µM |  |  |  |  | 10 to 25 µM | 
8 | Nc1nccnc1C(=O)Nc1cncnc1N1CCCCC1 [Example 128, 3-amino-N-(4-piperidin-1-yl-pyrimidin-5-yl)pyrazine-2-carboxamide] | 1 to 10 µM | > 25 µM | 10 to 25 µM |  |  |  |  | > 25 µM | 
9 | Nc1nccnc1C(=O)Nc1cnccc1N1CCNCC1 [Example 191, 3-amino-N-(4-piperazin-1-yl-pyridin-3-yl)pyrazine-2-carboxamide] |  | > 25 µM | 1 to 10 µM |  |  |  |  | < 1 µM | < 1 µM
10 | Nc1nccnc1C(=O)Nc1[nH]c(=O)ncc1N1CCCC(F)C1 (stereo not drawn) [Example 154, 3-amino-N-[5-(3-fluoro-piperidin-1-yl)-2-oxo-2,3-dihydropyrimidin-4-yl]pyrazine-2-carboxamide] | < 1 µM | < 1 µM | < 1 µM |  |  |  |  | < 1 µM | 
11 | Nc1ncc(Br)nc1C(=O)Nc1[nH]c(=O)ncc1N1CCC(C(F)(F)F)CC1 [Example 153, 3-amino-6-bromo-N-{2-oxo-5-[4-(trifluoromethyl)piperidin-1-yl]-2,3-dihydropyrimidin-4-yl}-pyrazine-2-carboxamide] | < 1 µM | < 1 µM | < 1 µM |  |  |  |  | > 25 µM | 
12 | NCC(=O)N1CCN(c2ccncc2NC(=O)c2nccnc2N)CC1 [Example 189, 3-amino-N-{4-[4-(amino-acetyl)piperazin-1-yl]pyridin-3-yl}pyrazine-2-carboxamide] |  | 1 to 10 µM | < 1 µM |  |  |  |  | < 1 µM | < 1 µM
13 | NCCC(=O)N1CCN(c2ccncc2NC(=O)c2nc(Br)cnc2N)CC1 [Example 178, 3-amino-N-{4-[4-(3-amino-propanoyl)piperazin-1-yl]-pyridin-3-yl}-6-bromopyrazine-2-carboxamide] | < 1 µM | < 1 µM | < 1 µM |  |  |  |  | < 1 µM | 
14 | Nc1ncc(-c2ccccc2C(F)(F)F)nc1C(=O)Nc1[nH]c(=O)ncc1N1CCCC(N)C1 (stereo not drawn) [Example 404, 3-amino-6-(2-trifluoromethyl-phenyl)-pyrazine-2-carboxylic acid [5-(3-amino-piperidin-1-yl)-2-oxo-2,3-dihydro-pyrimidin-4-yl]-amide] | < 1 µM | < 1 µM | < 1 µM |  |  |  |  | 1 to 10 µM | 
15 | Nc1ncc(Br)nc1C(=O)Nc1[nH]c(=O)ncc1-c1ccco1 [Example 141, 3-amino-6-bromo-N-[5-(2-furyl)-2-oxo-2,3-dihydro-pyrimidin-4-yl]pyrazine-2-carboxamide] | < 1 µM | < 1 µM | < 1 µM |  |  |  |  | 1 to 10 µM | 
16 | Nc1ncc(-c2ccccc2Cl)nc1C(=O)Nc1[nH]c(=O)ncc1N1CCCCC1 [Example 595, 3-amino-6-(2-chloro-phenyl)-pyrazine-2-carboxylic acid (2-oxo-5-piperidin-1-yl-2,3-dihydro-pyrimidin-4-yl)-amide] |  |  |  |  | < 1 µM | < 1 µM | < 1 µM | > 25 µM | 
17 | Nc1nccnc1C(=O)Nc1[nH]c(=O)ncc1N1CCC(F)(F)CC1 [Example 156, 3-amino-N-[5-(4,4-difluoro-piperidin-1-yl)-2-oxo-2,3-dihydropyrimidin-4-yl]pyrazine-2-carboxamide] | < 1 µM | < 1 µM | < 1 µM |  |  |  |  | 1 to 10 µM | 
18 | Nc1cnc(C(=O)Nc2cnccc2N2CCCCC2)c(N)n1 [Example 312, 3,5-diamino-N-(4-(piperidin-1-yl)pyridin-3-yl)pyrazine-2-carboxamide] | < 1 µM | 1 to 10 µM | < 1 µM |  |  |  |  | 10 to 25 µM | 
19 | N#Cc1ccccc1-c1cnc(N)c(C(=O)Nc2[nH]c(=O)ncc2N2CCCC(N)C2)n1 (stereo not drawn) [Example 403, 3-amino-6-(2-cyano-phenyl)-pyrazine-2-carboxylic acid [5-(3-amino-piperidin-1-yl)-2-oxo-2,3-dihydro-pyrimidin-4-yl]-amide] | < 1 µM | < 1 µM | < 1 µM |  |  |  |  | < 1 µM | 
20 | NCC1CCCN(c2cnc(=O)[nH]c2NC(=O)c2nc(Br)cnc2N)C1 (stereo not drawn) [Example 240, 3-amino-N-{5-[3-(aminomethyl)-piperidin-1-yl]-2-oxo-2,3-dihydropyrimidin-4-yl}-6-bromopyrazine-2-carboxamide] | < 1 µM | < 1 µM | < 1 µM |  |  |  |  | < 1 µM | 
21 | Nc1nccnc1C(=O)Nc1[nH]c(=O)ncc1-c1ccccn1 [Example 140, 3-amino-N-(2-oxo-5-pyridin-2-yl-2,3-dihydropyrimidin-4-yl)-pyrazine-2-carboxamide] | < 1 µM | < 1 µM | < 1 µM |  |  |  |  | 1 to 10 µM | 
22 | N#Cc1ccc(N2CCCCC2)c(NC(=O)c2nccnc2N)c1 [Example 171, 3-amino-N-(5-cyano-2-(piperidin-1-yl)phenyl)pyrazine-2-carboxamide] | < 1 µM | 1 to 10 µM | < 1 µM |  |  |  |  | 10 to 25 µM | 
23 | Nc1nccnc1C(=O)Nc1[nH]c(=O)ncc1-c1nccs1 [Example 138, 3-amino-N-[2-oxo-5-(1,3-thiazol-2-yl)-2,3-dihydro-pyrimidin-4-yl]pyrazine-2-carboxamide] | < 1 µM | < 1 µM | < 1 µM |  |  |  |  | > 25 µM | 
24 | Nc1ncc(-c2ccccc2C(F)(F)F)nc1C(=O)Nc1[nH]c(=O)ncc1N1CCCCC1 [Example 593, 3-amino-6-(2-trifluoromethyl-phenyl)-pyrazine-2-carboxylic acid (2-oxo-5-piperidin-1-yl-2,3-dihydro-pyrimidin-4-yl)-amide] |  |  |  |  | < 1 µM | < 1 µM | < 1 µM | > 25 µM | 
